Source: publication PMC6917776, “Discovery of a chemical probe for PRDM9” (Nature Communications, 2019)
Values joined by “and” are separate entries in the source; they are usually repeats but may differ in a detail not shown here. Identical values can stand only once.

Key:
[1] = target: T1, PRDM9 (amino acids: 195–415) (Homo sapiens, UniProt Q9NQV7); experiment: PRDM9 methyltransferase activity assay (3H-SAM scintillation proximity assay); format: biochemical; conditions: 100 µM compound
T1 construct: PRDM9 (amino acids: 195–415)
T1 sequence (Q9NQV7 195-415): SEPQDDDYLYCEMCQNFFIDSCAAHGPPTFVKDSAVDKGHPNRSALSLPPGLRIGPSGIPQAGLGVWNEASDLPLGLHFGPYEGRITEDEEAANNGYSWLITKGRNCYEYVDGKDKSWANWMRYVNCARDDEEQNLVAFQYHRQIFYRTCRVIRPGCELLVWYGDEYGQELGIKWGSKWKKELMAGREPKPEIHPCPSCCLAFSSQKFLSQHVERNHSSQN

PRDM9 = PRDM9 (Homo sapiens, UniProt Q9NQV7); experiment: PRDM9 cellular assay: H3K4me3 of endogenous histone H3 in HEK293T cells (western blot); format: cell-based; conditions: 20 h, technical replicates
Method: HEK293T (kind gift from Sam Benchimol, York University), or MCF7 (ATCC® HTB-22™), cells were plated (12 well plates) and next day co-transfected with 0.1 (HEK293T) or 0.2 (MCF7) µg of GFP-tagged histone H3 and with 0.1 (HEK293T) or 0.2 (MCF7) µg of Flag-tagged PRDM9/PRDM9 catalytic mutant (Y357S) and 0.8 or 0.6 µg of empty vector using JetPRIME® transfection reagent, following manufacturer instructions. After 4 h media was removed and cells were treated with compounds for 20 h. Next day, cells were lysed in lysis buffer (20 mM Tris-HCl pH 8, 150 mM NaCl, 1 mM EDTA, 10 mM MgCl2, 0.5% TritonX-100, 12.5 U mL^−1 benzonase (Sigma), complete EDTA-free protease inhibitor cocktail (Roche)). After 2 min incubation at RT, SDS was added to final 1% concentration. Cell lysates were analyzed in western blot for GFP and H3K4me3 levels. All cell lines were mycoplasma negative, as determined by MycoAlert™ Mycoplasma Detection Kit (Lonza).
Total cell lysates were resolved in 4–12% Bis-Tris Protein Gels (Invitrogen) and transferred in for 1.5 h (80 V) onto PVDF membrane (Millipore) in Tris-Glycine transfer buffer containing 20% MeOH and 0.05% SDS. Blots were blocked for 1 h in blocking buffer (5% milk in PBS) and incubated with primary antibodies anti-GFP (1:3000, Clontech # 632381), anti-H3K4me3 (1:1000, Millipore, #04-745), anti-histone H3 (1:2000, #ab10799, Abcam), anti-Flag (1:5000, #F4799, Sigma) in blocking buffer (5% BSA in 0.1% Tween 20 PBS) overnight at 4 °C. After five washes with 0.1% Tween 20 PBS the blots were incubated with goat-anti rabbit (IR800) and donkey anti-mouse (IR 680) antibodies (1:5000) in Odyssey Blocking Buffer (LiCor) for 1 h at RT and washed five times with 0.1% Tween 20 PBS. The signal was read on an Odyssey scanner (LiCor) at 800 nm and 700 nm and analyzed with Image Studio Ver.5.2 software. […]
endogenous histone H3. (a) Western blot analysis of cellular lysates prepared from HEK293T cells transfected with PRDM9-FLAG and treated with the indicated concentration of compound for 20 h. Mut denotes PRDM9 catalytic mutant (Y357S). (b) Non-linear fit of H3K4me3 fluorescence intensities normalized to intensities of histone H3 is shown. The results are MEAN +/- SEM of n=3 (technical replicates). Source data are provided as a Source Data file .
(§1) (1 picture or pasted object on this page, not shown here)

Histamine H3 = target: T2, Histamine H3 (Homo sapiens, UniProt Q9Y5N1); experiment: GPCR functional activity, GloSensor assay (agonist and antagonist mode); format: cell-based
T2 construct: NIMH Psychoactive Drug Screening Program, University of North Carolina at Chapel Hill
Description: Supplementary Figure 5. Assessment of GPCR functional activity. GloSensor® assay was
profiles were generously provided by the National Institute of Mental Health’s (NIMH)
Psychoactive Drug Screening Program, (Contract # HHSN-271-2013-00017-C) directed by B.L.
Roth, University of North Carolina at Chapel Hill and Project Officer J. Driscoll at NIMH,
Bethesda, Maryland, USA. Further details available at https://pdspdb.unc.edu/pdspWeb/.
MOR stands for “Opiate µ receptor”. […]
[…] Source data are provided as a

[2] = system: panel of 108 enzymes and receptors; experiment: Eurofins Panlabs customized panel profiling; format: binding
MCF7 cells = experiment: Cell growth, IncuCyte ZOOM cell number; format: cell-based; conditions: for Cell growth (Cell#): MCF7, 5 day treatment, technical replicates
Method: HEK293T or MCF7 cells were seeded on 96-well plates and the following day treated with compounds for indicated time. Cell number was determined with Vybrant® DyeCycle™ Green using IncuCyte™ ZOOM live cell imaging device (Essen Bioscence) and analyzed with IncuCyte™ ZOOM (2015A) software.
(top graphs) and MCF7 cells (bottom graph). Cells were treated with compounds for 2 and 4 days or 5 days in case of MCF7. Cell number was measured using IncuCyte™ ZOOM live cell imaging device. The results are MEAN +/- SEM, n=3 (technical replicates). Source data are provided as a Source Data file.
as §1

Chain of PRDM9 (Q9NQV7 whole entry): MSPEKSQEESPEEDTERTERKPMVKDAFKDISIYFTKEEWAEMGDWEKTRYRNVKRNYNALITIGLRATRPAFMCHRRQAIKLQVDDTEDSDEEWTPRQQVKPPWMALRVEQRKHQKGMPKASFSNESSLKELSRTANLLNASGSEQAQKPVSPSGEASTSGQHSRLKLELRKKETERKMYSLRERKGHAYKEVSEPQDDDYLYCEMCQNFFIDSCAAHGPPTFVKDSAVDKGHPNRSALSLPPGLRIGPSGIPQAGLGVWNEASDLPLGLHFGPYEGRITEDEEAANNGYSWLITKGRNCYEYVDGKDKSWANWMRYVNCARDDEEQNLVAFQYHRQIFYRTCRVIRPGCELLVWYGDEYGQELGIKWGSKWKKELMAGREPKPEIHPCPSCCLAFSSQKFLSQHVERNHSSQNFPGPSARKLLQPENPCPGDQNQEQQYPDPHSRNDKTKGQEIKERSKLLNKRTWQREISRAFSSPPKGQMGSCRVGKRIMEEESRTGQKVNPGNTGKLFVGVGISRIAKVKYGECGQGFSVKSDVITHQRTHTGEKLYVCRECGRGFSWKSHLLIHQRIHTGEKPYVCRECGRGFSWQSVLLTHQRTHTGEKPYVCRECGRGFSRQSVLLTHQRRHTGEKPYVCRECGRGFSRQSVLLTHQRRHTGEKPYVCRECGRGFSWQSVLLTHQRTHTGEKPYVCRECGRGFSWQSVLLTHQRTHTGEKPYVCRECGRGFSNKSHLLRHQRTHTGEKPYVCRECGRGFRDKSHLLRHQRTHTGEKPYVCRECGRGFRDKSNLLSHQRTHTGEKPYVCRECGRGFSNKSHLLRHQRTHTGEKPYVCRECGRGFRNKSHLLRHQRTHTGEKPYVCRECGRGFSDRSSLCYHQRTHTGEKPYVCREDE
T2 sequence (Q9Y5N1 whole entry): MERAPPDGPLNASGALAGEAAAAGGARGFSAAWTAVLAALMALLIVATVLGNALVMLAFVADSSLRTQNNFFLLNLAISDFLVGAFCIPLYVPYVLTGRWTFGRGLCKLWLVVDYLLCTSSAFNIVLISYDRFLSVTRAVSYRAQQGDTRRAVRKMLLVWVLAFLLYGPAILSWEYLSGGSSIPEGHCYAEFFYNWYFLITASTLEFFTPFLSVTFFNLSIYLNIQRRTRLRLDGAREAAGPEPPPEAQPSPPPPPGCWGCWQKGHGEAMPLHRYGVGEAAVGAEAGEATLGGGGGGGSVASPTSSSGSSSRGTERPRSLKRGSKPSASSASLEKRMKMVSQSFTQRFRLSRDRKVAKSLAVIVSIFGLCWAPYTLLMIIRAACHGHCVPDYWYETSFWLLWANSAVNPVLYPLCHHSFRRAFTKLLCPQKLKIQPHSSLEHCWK

SMILES | PRDM9-Activity %, single experiments [1] | H3K4me3/endogenousH3 - western blot (PRDM9; 0.256 µM) | H3K4me3/endogenousH3 - western blot (PRDM9; 0.64 µM) | H3K4me3/endogenousH3 - western blot (PRDM9; 1.6 µM) | H3K4me3/endogenousH3 - western blot (PRDM9; 4 µM) | H3K4me3/endogenousH3 - western blot (PRDM9; 10 µM) | Functional activity (in words) (Histamine H3) | Panel of 108 enzymes and receptors: targets with significant (>50% at 10 µM) binding [2] | MCF7 cell viability (in words) (MCF7 cells; 10 µM, 5-day proliferation assay) | Cell growth (Cell#) (MCF7 cells; 0.3 µM) | Cell growth (Cell#) (MCF7 cells; 1 µM) | Cell growth (Cell#) (MCF7 cells; 3 µM) | Cell growth (Cell#) (MCF7 cells; 10 µM) | Cell growth (Cell#) (MCF7 cells; 20 µM)
COc1cc(OC)cc(-c2noc(N3CCN(C)C4(CCN(c5ccccc5)CC4)C3)n2)c1 [MRK-740-NC] | 82.7625% and 75.9398% | – | – | – | – | – | – | – | – | – | – | – | – | –
COc1cc(OC)cc(-c2noc(N3CCN(C)C4(CCN(c5ccnc(C)c5)CC4)C3)n2)c1 [MRK-740] | – | 93.518 % control and 101.99 % control and 96.0071 % control | 97.4527 % control and 97.7629 % control and 94.1624 % control | 94.826 % control and 91.8208 % control and 93.3575 % control | 91.0956 % control and 84.7178 % control and 90.9069 % control | 88.6856 % control and 79.3861 % control and 84.4562 % control | no functional activity | binding only to Adrenergic α2B, Histamine H3, Muscarinic M2 and Opiate µ receptors | minimal impact on MCF7 cell viability | 106.53 % control and 74.2747 % control and 75.9554 % control | 111.892 % control and 99.8066 % control and 82.4385 % control | 103.969 % control and 69.7125 % control and 102.608 % control | 66.6711 % control and 77.6362 % control and 64.0299 % control | 36.7371 % control and 35.4566 % control and 42.0196 % control
